Test results: patent US20220096516A1, “OLIGONUCLEOTIDE MOLECULE AND APPLICATION THEREOF IN TUMOR THERAPY” (Ractigen Therapeutics, priority 2019, published 2022)
d = 2'-deoxy (DNA); r = 2'-OH (RNA)

How the values were obtained:
HepG2 transplanted tumor = HepG2 transplanted tumor growth in nude mice; parameters: species or system BALB/c nude mice; settings: HepG2 xenograft, day 13; saRNA (in vivo-jetPEI) 1 mg/kg intratumor days 1, 4, 7, 10; regorafenib 3 mg/kg intragastric daily day 1-12; vehicle 118%
Description: To prepare the saRNA formulation, the in vivo-jetPEI (201-10G, Polyplus-transfection, France) was adopted as an saRNA delivery system. The preparation process is briefly described as follows. An saRNA was first diluted in 10% glucose solution to obtain a solution A. According to the instructions of the manufacturer, a required amount of in vivo-jetPEI was diluted in 10% glucose solution to obtain a solution B. Equal volumes of the solution A and the solution B were mixed (nitrogen-to-phosphorus ratio: 8; final concentration of glucose: 5%). After mixing, the mixture was let to stand at room temperature for 15 minutes for later use.
HepG2 cells in the logarithmic growth phase were obtained and counted, and then the cell suspension was regulated to 5×10^7 cells/mL and subcutaneously inoculated into the right armpit of BALB/c nude mice at a volume of 0.1 mL per mouse. […] Starting from the initial administration, the long diameter and the short diameter of each tumor were measured with a vernier caliper every two days. The tumor volume was calculated according to the formula V=(l×w^2)/2, wherein 1 represents the longest diameter of the tumor and w represents the diameter parallel to the surface of the tumor and perpendicular to the long diameter. A tumor growth curve and size and morphology of the tumor after anatomy were recorded during the administration.

U87MG transplanted tumor = U87MG transplanted tumor growth in nude mice; parameters: species or system BALB/c nude mice; settings: U87MG xenograft, day 13; saRNA (in vivo-jetPEI) 1 mg/kg intratumor days 1, 4, 7, 10; regorafenib 3 mg/kg intragastric daily day 1-12; control 406%
Description: To prepare the saRNA formulation, in vivo-jetPEI (201-10G, Polyplus-transfection, France) was adopted as an saRNA delivery system. The preparation process is briefly described as follows: an saRNA was first diluted in a 10% glucose solution to give a solution A; a required amount of in vivo-jetPEI was diluted in 10% glucose solution to give a solution B; then, equal volumes of the solution A and the solution B were mixed (nitrogen-to-phosphorus ratio: 8; final concentration of glucose: 5%). After mixing the mixture was let to stand under room temperature for 15 minutes for later use.
The glioma cell line U87MG were grown to the logarithmic phase, counted, then subcutaneously inoculated at a concentration of 9×10^7 cells/mL into the right armpit of BALB/c nude mice at 0.1 mL per mouse. […] After the initial administration, the long diameter and short diameter of each tumor were measured with a vernier caliper every two days. The tumor volume was calculated according to the formula V=(l×w^2)/2, wherein 1 represents the longest diameter of the tumor and w represents the diameter parallel to the surface of the tumor and perpendicular to the long diameter. A tumor growth curve and size and morphology of the tumor anatomy were recorded during the administration.

LHPP gene [1] = test: High-throughput screening of saRNAs targeting LHPP promoter: LHPP mRNA by one-step RT-qPCR in Huh7 cells; format: cell-based, human; settings: 10 nM saRNA, 72 hours, relative to control (Mock)
In short: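 Huh7 cells were transfected with 10 nM saRNA using RNAiMax and lysed 72 h later. LHPP mRNA was quantified by one-step RT-qPCR in triplicate wells. Expression was normalised to HPRT1 and TBP and given as fold change versus mock-transfected cells.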

Huh7 cells = test: Cell viability by CCK-8 method, Huh7; format: cell-based, human; settings: Huh7, 10 nM, 72 h, FIG. 6B
Description: The 290 saRNAs targeting the LHPP promoter were individually transfected into Huh7 cells, and 72 hour later, one-step RT-qPCR was employed to analyze the expression levels of LHPP mRNA and cell viability was detected by the CCK-8 method.
(§1) The cell viability was detected by the following CCK-8 method: the cCells were plated into a 96-well plate at 3-5×10^3 cells/well, cultured overnight, and transfected with the oligonucleotide duplexes. After 72 hour of transfection, 10 uL of CCK-8 solution (Dojindo Molecular Technologies) was added into each well. After 1 hour of incubation at 37° C., a microplate reader was used to measure absorbances at 450 nm.
(§2) In order to further evaluate the effect of LHPP saRNAs in inducing the mRNA expression of the LHPP gene and inhibiting the proliferation of cancer cells, eight screened saRNAs (RAG7-132, RAG7-133, RAG7-139, RAG7-177, RAG7-178, RAG7-694, RAG7-707 and RAG7-892) each were transfected into the liver cancer cell lines Huh7 (Medical Cell Resource Center, Tohoku University, Japan), HepG2 (ATCC), Hep3B (ATCC), Li-7 (Medical Cell Resource Center, Tohoku University, Japan) and SK-HEP-1 (ATCC), a lung cancer cell line A549 (ATCC), a bladder cancer cell line T24 (ATCC), a prostatic cancer cell line PC3 (ATCC), and a glioma cell line U87MG (ATCC). The mRNA expression and cell viability of the transfected cells were measured.

LHPP gene [2] = test: LHPP mRNA expression by RT-qPCR in cancer cell lines; format: cell-based, human; settings: 72 h
Description: (§3) 8 LHPP promoter-targeting saRNAs were individually transfected into liver cancer cells at 10 nM for 72 h. In FIG. 6A, the expression level of LHPP mRNA was analyzed by RT-qPCR. In FIG. 6B, cell viability in the saRNA treatment group was evaluated by the CCK-8 method and recorded as a percentage relative to the viability of cells in a control (Mock) treatment group.
as §3, with “into” for “into liver”, “7A,” for “6A,”, “7B,” for “6B,”
as §2

HepG2 cells = test: Cell viability by CCK-8 method, HepG2; format: cell-based, human; settings: HepG2, 10 nM, 72 h, FIG. 6B
Description: as §3
as §1, with “nm. […]” for “nm.”

Hep3B cells = test: Cell viability by CCK-8 method, Hep3B; format: cell-based, human; settings: 10 nM, 72 h, FIG. 6B
Description: as §3
as §1, with “nm. […]” for “nm.”

SK-HEP-1 cells = test: Cell viability by CCK-8 method, SK-HEP-1; format: cell-based, human; settings: SK-HEP-1, 10 nM, 72 h, FIG. 6B
Description: as §3
as §1, with “nm. […]” for “nm.”

[3] = test system: lung cancer cell line A549; test: Cell viability by CCK-8 method, A549; format: cell-based, human; settings: A549, 10 nM, 72 h, FIG. 7B
Description: as §3, with “into” for “into liver”, “7A,” for “6A,”, “7B,” for “6B,”
as §1, §2

[4] = test system: bladder cancer cell line T24; test: Cell viability by CCK-8 method, T24; format: cell-based, human; settings: T24, 10 nM, 72 h, FIG. 7B
Description: as §3, with “into” for “into liver”, “7A,” for “6A,”, “7B,” for “6B,”
as §1, §2

[5] = test system: prostatic cancer cell line PC3; test: Cell viability by CCK-8 method, PC3; format: cell-based, human; settings: PC3, 10 nM, 72 h, FIG. 7B
Description: as §3, with “into” for “into liver”, “7A,” for “6A,”, “7B,” for “6B,”
as §1, §2

Compound: CNC(=O)c1cc(Oc2ccc(NC(=O)Nc3ccc(Cl)c(C(F)(F)F)c3)c(F)c2)ccn1 [regorafenib, Regorafenib, reference compound]
- tumor volume increase compared with that at the beginning of treatment (HepG2 transplanted tumor): 70%
- tumor volume increase compared with that at the beginning of treatment (U87MG transplanted tumor): 251%

Compound: RAG7-694: saRNA duplex; sense AGGUCCUAUGCAUCCUCAUTT (SEQ ID NO: 3), antisense AUGAGGAUGCAUAGGACCUTT (SEQ ID NO: 167) (sugars from the 5' end r19 d2, backbone not given here)
- Fold of changes in relative LHPP mRNA expression level (LHPP gene [1]): 1.88 fold
- Fold of changes in relative LHPP mRNA expression level (log2) (LHPP gene [1]): 0.91 log2
- cell proliferation (cell viability, CCK-8) (Huh7 cells): inhibited cell proliferation
- expression of LHPP gene (mRNA) (LHPP gene [2]; A549, 10 nM, FIG. 7A): induced the expression of LHPP gene to different degrees
- expression of LHPP gene (mRNA) (LHPP gene [2]; Hep3B, 10 nM, FIG. 6A): induced the expression of LHPP gene to different degrees
- expression of LHPP gene (mRNA) (LHPP gene [2]; HepG2, 10 nM, FIG. 6A): induced the expression of LHPP gene to different degrees
- expression of LHPP gene (mRNA) (LHPP gene [2]; Huh7, 10 nM, FIG. 6A): induced the expression of LHPP gene to different degrees
- expression of LHPP gene (mRNA) (LHPP gene [2]; PC3, 10 nM, FIG. 7A): induced the expression of LHPP gene to different degrees
- expression of LHPP gene (mRNA) (LHPP gene [2]; SK-HEP-1, 10 nM, FIG. 6A): induced the expression of LHPP gene to different degrees
- expression of LHPP gene (mRNA) (LHPP gene [2]; T24, 10 nM, FIG. 7A): induced the expression of LHPP gene to different degrees
- cell proliferation (cell viability, CCK-8) (HepG2 cells): inhibited cell proliferation
- cell proliferation (cell viability, CCK-8) (Hep3B cells): inhibited cell proliferation
- cell proliferation (cell viability, CCK-8) (SK-HEP-1 cells): inhibited cell proliferation
- cell proliferation (cell viability, CCK-8) [3]: inhibited cell proliferation
- cell proliferation (cell viability, CCK-8) [4]: inhibited cell proliferation
- cell proliferation (cell viability, CCK-8) [5]: inhibited cell proliferation
